From patent publication US11576912B2, “Target genes in MYC-driven neoplasia” (The Board of Trustees of the Leland Stanford Junior …, priority 2017, dated 2023)

Assays:
EC4 cells [1] = test: EU labeling and imaging of total RNA distribution (RNA export); type: cell-based, mouse; conditions: EC4 cells overexpressing MYC, 150 nM KPT-330, 5 h EU labeling, compared with DMSO controls
Procedure: EU-Labeling and Visualization of Total RNA EC4 cells were labeled with 1 mM 5-ethynyl uridine (EU) for 5h in the presence of 150 nM KPT-330 or vehicle (DMSO control) at 37 degrees and 5% CO2. Cells were then fixed with 4% formaldehyde in PBS at room temperature for 20 minutes, washed consecutively with PBS, 50 mM NH4Cl/PBS, PBS (10 minutes each) and permeabilized with 0.2% TritonX100/PBS. After washing with PBS, EU was labeled with Alexa-647-azide using the Click-IT imaging kit (Invitrogen) following the manufacturer's instructions. Images were acquired on a DMI 6000 B (Leica) epifluorescence microscope. Mean fluorescence intensities in regions of interest in the cytoplasm and in the nucleus omitting nucleoli were determined using ImageJ.

EC4 cells [2] = test: Flow cytometric analysis of apoptosis (7-AAD/Annexin V); type: cell-based, mouse; conditions: versus DMSO
Procedure: Flow Cytometric Analysis of Apoptosis For apoptosis staining, cells were stained with 7-AAD and PE-Annexin-V (Becton Dickinson) and analyzed on a FACScan flow cytometer following manufacturer's instructions. FACS data was analyzed with FlowJo software (Tree Star). The apoptotic cell populations were defined by positive staining of both Annexin-V and 7-AAD.

[3] = IC50 determination, CellTiter-Glo cell viability, cell lines with high MYC expression; type: cell-based, human and mouse; conditions: Mus musculus; range over MYC overexpressing cancer cell lines, 72 hours
Procedure: (§1) IC50 Determination Cells were seeded at a density of 1000-2000 cells/well in 96-well plates. Cells were treated with different concentrations of KPT-330 (1:3 dilution from 10 micromolar to 0.33 nanomolar) for 72 hours. MYC expression was shut off by treating the cells with doxycycline (100ng/ml). All experiments were performed in quadruplicates. Cell viability was determined using the CellTiter-Glo Luminescent Cell Viability Assay (Promega). The IC50 was calculated using the Prism software (GraphPad). The log-transformed concentration values and the normalized luminance data were fitted to a four-parameter logistic equation to derive the IC50 value.

[4] = IC50 determination, CellTiter-Glo cell viability, low MYC liver cancer cell lines and normal fibroblasts; type: cell-based; conditions: Homo sapiens; range over normal fibroblast cell line and liver cancer cell lines with low MYC expression, 72 hours
Procedure: as §1

[5] = tested on: primary liver tumors in the LAP-tTA/tet-O-MYC mouse model
Procedure: KPT-330 Treatment In Vivo and Monitoring the Tumor Size
The KPT-330 (Selleckchem) was dissolved in vehicle (1% Pluronic F-68 and 1% PVP-K29/32, 25 mg/kg) was administered by oral gavage to tumor-bearing mice three times a week for 6 doses total. A 7T MRI for small animals was used to image tumor both before and after treatment. Tumor volume was calculated based on the T2 weighted image stacks using the Osirix software. For short-term treatment, the mice were treated with either vehicle or KPT-330 for three doses and sacrificed the following day after the third dose.
Western Blot and Immunohistochemical Analysis
The following antibodies were used for Western blotting and IHC: MYC (9E10 for Western blot and Epitomics 1472-1 for IHC), Tubulin (Sigma), Cleaved caspase 3 and phospho-Histone H3 (Cell Signaling). Immunofluorescence or bright field pictures were taken with 20× objectives on a Leica DMI6000 B microscope and quantified using MetaMorph image analysis software.

[6] = short-term treatment, three doses

Compound: O=C(/C=C\n1cnc(-c2cc(C(F)(F)F)cc(C(F)(F)F)c2)n1)NNc1cnccn1 [KPT-330]
- RNA distribution in the cytoplasm (EC4 cells [1]): significantly reduced RNA distribution in the cytoplasm
- RNA nuclear-cytoplasmic ratio (EC4 cells [1]): increased RNA nuclear-cytoplasmic ratio
- increase in apoptosis (EC4 cells [2]; EC4 cells with MYC OFF (doxycycline)): modest increase in apoptosis
- induction of tumor cell apoptosis (EC4 cells [2]; EC4 cells with MYC overexpression (MYC ON)): four-fold induction of tumor cell apoptosis
- IC50 [3]: 70 to 300 nM
- IC50 [4]: ≥ 300 nM
- reduction in tumor volume ([5]; 25 mg/kg oral gavage three times a week, 6 doses, two weeks, MRI before and after): more than 95%
- histological examination of tumor sections ([5]; H&E staining of tumor sections): only sporadic tumor cells left
- proliferation or apoptosis in adjacent liver tissues (toxicity to normal hepatocytes) ([5]; mouse, in vivo): minimal toxicity to the normal hepatocytes
- tumor cell apoptosis by cleaved caspase-3 staining [5, 6]: significantly induced apoptosis
- tumor cell proliferation by phospho-histone H3 staining [5, 6]: completely suppressed the proliferation
- tumor regression according to MRI scan ([5]; two mice with smaller tumors, 6 doses, two weeks): complete tumor regression
